Data reported in publication PMC9013686, “Inter-individual variation in chlorpyrifos toxicokinetics characterized by physiologically based kinetic (PBK) and Monte Carlo simulation comparing human liver microsome and Supersome™ cytochromes P450 (CYP)-specific kinetic data as model input” (Archives of Toxicology, 2022).

How the values were obtained:
pooled HLMs (CYPs) = assay: CYP-mediated biotransformation of CPF in pooled HLMs (literature kinetic data); format: in vitro ADME, human; conditions: bioactivation of CPF
Text: (§1) As mentioned before, the in vitro apparent kinetic parameters (Vmax and Km) for pathway 1 and pathway 2 in the HLM-based approach, and pathway 3 in both approaches were all obtained directly from reported studies using pooled HLMs (Buratti et al. [2003]; Sams et al. [2004]; Zhao et al. [2019]). Therefore, no extra calculations were required to define these parameters. The kinetic parameters for the ISEF calculation, pathway 1 and 2 in the Supersome™-based approach, and pathway 4 in both approaches (25 individuals) were all obtained by fitting the experimental data to the Michaelis–Menten model using GraphPad (GraphPad Prism 5.0 software, San Diego, CA, USA). It should be noted that the kinetic parameters for pathway 4 used in the two approaches were calculated as mean of the kinetic parameters (Vmax and Km) obtained using 25 individual HP samples (with correction for total protein concentration of each plasma sample).

CYP2B6 = target: T1, CYP2B6 (Homo sapiens, UniProt P20813); conditions: bioactivation of CPF, ref Foxenberg et al. [2007]; cited from earlier work
T1 sequence (P20813 1-491): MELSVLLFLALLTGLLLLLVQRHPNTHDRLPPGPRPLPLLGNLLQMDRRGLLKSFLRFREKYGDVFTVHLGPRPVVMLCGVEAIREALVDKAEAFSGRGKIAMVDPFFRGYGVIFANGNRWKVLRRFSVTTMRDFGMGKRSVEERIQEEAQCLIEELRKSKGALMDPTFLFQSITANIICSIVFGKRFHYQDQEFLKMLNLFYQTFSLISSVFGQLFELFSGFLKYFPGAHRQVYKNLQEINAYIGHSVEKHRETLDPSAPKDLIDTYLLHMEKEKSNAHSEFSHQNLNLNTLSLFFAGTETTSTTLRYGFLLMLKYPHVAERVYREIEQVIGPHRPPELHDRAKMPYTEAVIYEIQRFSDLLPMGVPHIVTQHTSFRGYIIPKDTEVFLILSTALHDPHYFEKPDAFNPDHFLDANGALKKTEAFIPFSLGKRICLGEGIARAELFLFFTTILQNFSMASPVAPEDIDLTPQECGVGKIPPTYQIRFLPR

CYP1A2 = target: T2, CYP1A2 (Homo sapiens, UniProt P05177); assay: Supersome CYP1A2 kinetic incubations; format: in vitro ADME; parameters: purchased Corning (Amsterdam, The Netherlands); host or cells: baculovirus-transfected insect cells; conditions: for Scaled Vmax(app): CYP1A2 scaled to whole liver by Eq. 3; for Vmax (app) / Km: Supersome CYP1A2; for Km: human, recombinant CYP1A2 Supersomes, pH 7.4, Km(app)
T2 sequence (P05177 2-516 limits assumed): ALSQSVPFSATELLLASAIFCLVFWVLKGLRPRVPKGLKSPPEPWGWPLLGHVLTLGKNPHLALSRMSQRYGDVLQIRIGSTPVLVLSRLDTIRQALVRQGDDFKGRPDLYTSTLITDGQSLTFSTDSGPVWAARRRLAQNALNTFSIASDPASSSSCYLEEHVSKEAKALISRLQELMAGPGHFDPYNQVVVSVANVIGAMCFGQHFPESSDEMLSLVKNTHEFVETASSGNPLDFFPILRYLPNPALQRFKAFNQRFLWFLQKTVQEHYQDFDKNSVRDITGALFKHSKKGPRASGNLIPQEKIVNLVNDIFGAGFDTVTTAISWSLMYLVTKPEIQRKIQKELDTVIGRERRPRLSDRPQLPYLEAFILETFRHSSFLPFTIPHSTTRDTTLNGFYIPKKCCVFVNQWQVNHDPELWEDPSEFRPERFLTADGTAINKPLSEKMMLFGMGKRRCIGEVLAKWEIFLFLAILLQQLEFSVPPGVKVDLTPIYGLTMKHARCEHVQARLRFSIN
Protocol: (§2) The final incubations were carried out in 50 mM Tris–HCl (pH 7.4) containing 5 mM MgCl2, 1 mM EDTA (as an A-esterase PON1 inhibitor) (Bizoń and Milnerowicz [2018]), 50 µM iso-OMPA (as a B-esterases inhibitor) (Lane et al. [2006]), Supersome™ isoform (at final concentration of 0.005 nmol CYP/ml for 1A2, 0.001 nmol CYP/ml for 2B6, 0.01 nmol CYP/ml for 2C19, and 0.01 nmol CYP/ml for 3A4) and CPF at different final concentrations (0.05, 0.1, 0.25, 0.5, 1, 5 and 10 µM for 1A2, 0.05, 0.1, 0.25, 0.5, 1, 5 10 and 25 µM for 2B6, 1, 2.5, 5, 10, 25 and 50 µM for 2C19, and 0.5, 1, 2.5, 5, 10, 25 and 50 µM for 3A4), which were added from 100 times concentrated stock solutions in ACN. After 1 min preincubation in a 37 °C water bath, 5 µl NADPH (final concentration 1 mM) was added to the incubation system. Control incubations were performed by replacing NADPH with the same amount of Tris–HCl (pH 7.4). The total volume of the incubation mixtures was 200 µl. The incubations lasted for 2 min at 37 °C and were terminated by addition of 50 µl ice cold ACN and subsquently put on ice. After that, samples were centrifuged at 16,000 g (4 ℃) for 5 min and supernatants of samples were separated into two equal portions for Ultra-Performance Liquid Chromatography-Photodiode Array (UPLC-PDA) and Liquid Chromatography Mass Spectrometry (LC–MS/MS) analysis, respectively.
(§3) To normalize for differences in intrinsic CYP activity between Supersome™ and pooled HLMs and enable scaling of the activities to the in vivo situation, CYP-specific ISEF values need to be established. […] The incubation method was similar as used for the CPF kinetic incubation assay described above, except that certain incubation conditions were replaced by the conditions listed in Table 1. The samples obtained were analyzed by UPLC-PDA for acetaminophen, 4-hydroxymephenytoin, and 6β-hydroxytestosterone formation catalyzed by 1A2, 2C19 and 3A4, or LC–MS/MS for (±)-hydroxybupropion formation catalyzed by 2B6.
as §1
(§4) The in vivo Kmi values were assumed to be equal to the apparent Kmi(app) values (µM) obtained in the in vitro incubations, while the in vivo Vmaxi for each CYP isoform was derived from their corresponding apparent CYP isoform Vmaxi(app) (pmol/min/pmolCYP) using Eq. 3:3 Vmaxi=Vmaxiapp×CYPiabundance×ISEF×60×MPL×1000×VL/1,000,000,

CYP2C19 = CYP2C19 (Homo sapiens, UniProt P33261); assay: Supersome CYP2C19 kinetic incubations; format: in vitro ADME; parameters: purchased Corning (Amsterdam, The Netherlands); host or cells: baculovirus-transfected insect cells; conditions: for Scaled Vmax(app): CYP2C19 scaled to whole liver by Eq. 3; for Vmax (app) / Km: Supersome CYP2C19; for Km: human, recombinant CYP2C19 Supersomes, pH 7.4, Km(app)
Sequence of CYP2C19 (P33261 whole entry): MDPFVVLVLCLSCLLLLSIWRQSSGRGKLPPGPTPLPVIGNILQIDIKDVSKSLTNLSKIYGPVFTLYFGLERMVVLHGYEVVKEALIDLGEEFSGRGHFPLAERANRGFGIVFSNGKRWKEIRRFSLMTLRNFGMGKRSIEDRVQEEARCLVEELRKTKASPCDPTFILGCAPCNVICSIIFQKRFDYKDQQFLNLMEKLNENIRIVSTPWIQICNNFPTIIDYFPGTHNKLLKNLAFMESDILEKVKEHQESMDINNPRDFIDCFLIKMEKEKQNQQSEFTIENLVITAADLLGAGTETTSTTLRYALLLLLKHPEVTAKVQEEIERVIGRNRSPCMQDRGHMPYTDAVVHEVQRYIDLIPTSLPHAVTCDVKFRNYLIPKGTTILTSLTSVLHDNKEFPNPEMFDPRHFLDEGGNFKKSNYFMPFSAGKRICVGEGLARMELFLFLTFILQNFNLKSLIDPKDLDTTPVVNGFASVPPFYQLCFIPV
Protocol: as §2, §3, §1, §4

[1] = Pathway 1 (bioactivation of CPF to CPO)
[2] = Pathway 2 (detoxification of CPF to TCPy)

CCOP(=S)(OCC)Oc1nc(Cl)c(Cl)cc1Cl [CPF, Chlorpyrifos]
CE of pooled HLM, biphasic kinetics (pooled HLMs (CYPs); high and low affinity phase included): 3600 L/h
CE of pooled HLM, high affinity phase excluded (pooled HLMs (CYPs); non-biphasic): 41 L/h
Km (CYP2B6): 0.81 µM
Scaled Vmax(app) (CYP1A2; Pathway 1 (CPF to CPO)): 51.81 µmol/h
Vmax (app) (CYP1A2; Pathway 1 (CPF to CPO)): 3.96 pmol/min/pmolCYP
Scaled Vmax(app) (CYP1A2; Pathway 2 (CPF to TCPy)): 38.73 µmol/h
Vmax (app) (CYP1A2; Pathway 2 (CPF to TCPy)): 2.96 pmol/min/pmolCYP
Km (CYP1A2; [1]): 0.61 µM
Km (CYP1A2; [2]): 1.25 µM
Scaled Vmax(app) (CYP2C19; Pathway 1 (CPF to CPO)): 10.81 µmol/h
Vmax (app) (CYP2C19; Pathway 1 (CPF to CPO)): 2.74 pmol/min/pmolCYP
Scaled Vmax(app) (CYP2C19; Pathway 2 (CPF to TCPy)): 69.06 µmol/h
Vmax (app) (CYP2C19; Pathway 2 (CPF to TCPy)): 17.51 pmol/min/pmolCYP
Km (CYP2C19; [1]): 1.89 µM
Km (CYP2C19; [2]): 1.37 µM
